The values that follow are results of earlier work, collected in US8367683B2, “Composition and method for treatment of warts” (Medcara, L.L.C., priority 2005, dated 2013).

The series has as its system warts. The settings on record: even with patient compliance; applied several times a day over weeks to months.

Turning to `O=C(O)c1ccccc1O` [salicylic acid], the “share of users who experience success” value is given as “less than half”.
